# Measurements published in ChEMBL document CHEMBL1201862, “PubChem BioAssay data set” (2004).
# Active and inactive are the calls of the source.
# What was measured:
# [1] = biological target: Nonstructural protein 1 (Influenza A virus, UniProt Q194T2); type: functional, Influenza A virus (A/California/07/2009(H1N1))
# [2] = viability of uninfected HEp-2 cells – cell-based, HTS, cytotoxicity control for RSV inhibitor project, dose response (AID 2410); type: functional; settings: human respiratory syncytial virus
# [3] = biological target: Prothrombin (Homo sapiens, UniProt P00734); assay: Thrombin 1536 HTS Dose Response Confirmation. [Related pubchem assays: 1046 (Thrombin 1536 HTS; hits were confirmed in this assay)]; type: functional
# [4] = biological target: Cytochrome P450 3A4 (Homo sapiens, UniProt P08684);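 also: CYP3A4 tested as one member of a cytochrome P450 panel screen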
# Chain of Cytochrome P450 3A4 (P08684 whole entry): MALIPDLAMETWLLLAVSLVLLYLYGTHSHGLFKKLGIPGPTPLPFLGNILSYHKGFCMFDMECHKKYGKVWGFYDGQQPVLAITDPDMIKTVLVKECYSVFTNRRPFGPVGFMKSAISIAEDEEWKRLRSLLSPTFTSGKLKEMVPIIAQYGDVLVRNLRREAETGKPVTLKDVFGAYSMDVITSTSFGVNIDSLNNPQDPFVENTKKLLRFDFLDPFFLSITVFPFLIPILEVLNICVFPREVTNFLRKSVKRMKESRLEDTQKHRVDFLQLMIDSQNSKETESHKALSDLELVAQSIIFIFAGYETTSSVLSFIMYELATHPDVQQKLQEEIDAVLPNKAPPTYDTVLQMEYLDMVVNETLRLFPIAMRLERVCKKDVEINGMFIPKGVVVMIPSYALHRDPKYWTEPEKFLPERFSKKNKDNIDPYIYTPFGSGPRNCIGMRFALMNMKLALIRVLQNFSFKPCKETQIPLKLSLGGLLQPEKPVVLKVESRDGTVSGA
# [5] = biological target: Glyceraldehyde-3-phosphate dehydrogenase (Homo sapiens, UniProt P04406)
# Chain of Glyceraldehyde-3-phosphate dehydrogenase (P04406 whole entry): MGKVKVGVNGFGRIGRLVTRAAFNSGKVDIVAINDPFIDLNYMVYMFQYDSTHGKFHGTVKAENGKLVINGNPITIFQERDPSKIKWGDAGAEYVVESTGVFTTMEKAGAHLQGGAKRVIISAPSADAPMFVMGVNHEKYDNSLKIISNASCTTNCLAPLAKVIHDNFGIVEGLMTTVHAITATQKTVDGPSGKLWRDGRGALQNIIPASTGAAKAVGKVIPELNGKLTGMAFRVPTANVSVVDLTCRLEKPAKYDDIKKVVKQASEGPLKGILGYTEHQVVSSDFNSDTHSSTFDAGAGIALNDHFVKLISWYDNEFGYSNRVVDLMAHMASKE
# [6] = biological target: T1, Leucine aminopeptidase (Plasmodium falciparum 3D7, UniProt Q8IL11); assay: P. falciparum M17LAP inhibitors, primary screen, biochemical, fluorogenic H-Leu-NHMec substrate, 1536-well (AID 1619); type: functional
# T1 sequence (Q8IL11 whole entry): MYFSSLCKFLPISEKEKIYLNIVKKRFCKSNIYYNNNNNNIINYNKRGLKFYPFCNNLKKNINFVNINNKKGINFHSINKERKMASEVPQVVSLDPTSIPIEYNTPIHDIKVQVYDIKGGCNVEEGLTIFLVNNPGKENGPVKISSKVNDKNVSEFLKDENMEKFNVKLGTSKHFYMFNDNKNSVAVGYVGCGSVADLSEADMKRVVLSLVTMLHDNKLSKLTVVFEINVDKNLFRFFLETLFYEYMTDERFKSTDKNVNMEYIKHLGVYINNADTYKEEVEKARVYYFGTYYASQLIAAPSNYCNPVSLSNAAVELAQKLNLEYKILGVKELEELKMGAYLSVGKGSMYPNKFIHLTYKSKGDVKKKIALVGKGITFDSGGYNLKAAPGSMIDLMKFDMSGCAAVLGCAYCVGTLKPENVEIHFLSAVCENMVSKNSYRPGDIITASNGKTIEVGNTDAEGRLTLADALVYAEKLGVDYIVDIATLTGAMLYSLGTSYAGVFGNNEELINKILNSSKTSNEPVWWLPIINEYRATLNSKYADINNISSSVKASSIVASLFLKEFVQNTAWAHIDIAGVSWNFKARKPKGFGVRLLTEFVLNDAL
# [7] = biological target: Cytochrome P450 2C9 (Homo sapiens, UniProt P11712)
# Chain of Cytochrome P450 2C9 (P11712 whole entry): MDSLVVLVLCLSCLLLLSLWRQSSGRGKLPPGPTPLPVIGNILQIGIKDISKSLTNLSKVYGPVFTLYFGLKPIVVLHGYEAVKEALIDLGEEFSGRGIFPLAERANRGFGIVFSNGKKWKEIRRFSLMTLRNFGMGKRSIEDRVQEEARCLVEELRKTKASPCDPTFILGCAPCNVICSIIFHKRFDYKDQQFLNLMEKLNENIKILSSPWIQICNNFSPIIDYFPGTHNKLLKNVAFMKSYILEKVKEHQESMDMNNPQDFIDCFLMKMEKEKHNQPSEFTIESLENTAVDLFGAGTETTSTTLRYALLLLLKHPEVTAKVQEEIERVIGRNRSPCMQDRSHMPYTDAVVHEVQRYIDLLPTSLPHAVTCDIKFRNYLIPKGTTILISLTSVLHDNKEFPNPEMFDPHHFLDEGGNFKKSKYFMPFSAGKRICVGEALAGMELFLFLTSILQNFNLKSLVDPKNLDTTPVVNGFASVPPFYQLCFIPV
# [8] = P. falciparum Dd2 growth inhibitors, dose response, SYBR Green, cherry-picked samples (AID 1159567); type: functional, cell-based
# [9] = biological target: DNA dC->dU-editing enzyme APOBEC-3G (Homo sapiens, UniProt Q9HC16); assay: Dose Response confirmation of small molecule APOBEC3G DNA Deaminase Inhibitors via a fluorescence-based single-stranded DNA deaminase assay. [Related pubchem assays (depositor defined):AID493012, AID493028]; type: functional
# Chain of DNA dC->dU-editing enzyme APOBEC-3G (Q9HC16 whole entry): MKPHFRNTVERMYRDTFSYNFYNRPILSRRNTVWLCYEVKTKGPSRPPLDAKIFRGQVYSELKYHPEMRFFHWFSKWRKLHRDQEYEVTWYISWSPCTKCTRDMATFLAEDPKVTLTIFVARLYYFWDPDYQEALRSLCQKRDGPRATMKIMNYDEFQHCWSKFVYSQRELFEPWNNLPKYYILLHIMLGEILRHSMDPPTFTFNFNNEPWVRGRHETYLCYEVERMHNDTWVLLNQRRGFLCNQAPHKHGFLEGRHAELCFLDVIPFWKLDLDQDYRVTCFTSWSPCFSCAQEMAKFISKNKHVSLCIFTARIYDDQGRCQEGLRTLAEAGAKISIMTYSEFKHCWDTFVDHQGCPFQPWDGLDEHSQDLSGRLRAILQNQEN
# [10] = biological target: FAD-linked sulfhydryl oxidase ALR (Homo sapiens, UniProt P55789); assay: ALR-catalysed DTT oxidation blockers – biochemical, H2O2 detection, luminescence, cherry-pick, dose response (AID 493248)
# Chain of FAD-linked sulfhydryl oxidase ALR (P55789 whole entry): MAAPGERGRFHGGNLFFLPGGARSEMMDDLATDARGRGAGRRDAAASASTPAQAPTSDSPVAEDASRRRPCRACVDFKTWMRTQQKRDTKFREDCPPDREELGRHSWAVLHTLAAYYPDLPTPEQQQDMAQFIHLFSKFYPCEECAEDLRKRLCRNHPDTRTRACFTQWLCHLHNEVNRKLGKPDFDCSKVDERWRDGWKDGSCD
# [11] = biological target: T2, Heat shock factor protein 1 (Mus musculus, UniProt P38532); assay: decrease of HSF1-responsive luciferase luminescence – cell-based, NIH3T3, dose retest, confirmation (AID 2382); type: functional;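 also: NIH3T3 fibroblasts with HSF1-driven luciferase reporter stressed by proteasome inhibitor MG132; luminescence from HSF1-driven luciferase expression after 8 hours of MG132 stress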
# T2 sequence (P38532 whole entry): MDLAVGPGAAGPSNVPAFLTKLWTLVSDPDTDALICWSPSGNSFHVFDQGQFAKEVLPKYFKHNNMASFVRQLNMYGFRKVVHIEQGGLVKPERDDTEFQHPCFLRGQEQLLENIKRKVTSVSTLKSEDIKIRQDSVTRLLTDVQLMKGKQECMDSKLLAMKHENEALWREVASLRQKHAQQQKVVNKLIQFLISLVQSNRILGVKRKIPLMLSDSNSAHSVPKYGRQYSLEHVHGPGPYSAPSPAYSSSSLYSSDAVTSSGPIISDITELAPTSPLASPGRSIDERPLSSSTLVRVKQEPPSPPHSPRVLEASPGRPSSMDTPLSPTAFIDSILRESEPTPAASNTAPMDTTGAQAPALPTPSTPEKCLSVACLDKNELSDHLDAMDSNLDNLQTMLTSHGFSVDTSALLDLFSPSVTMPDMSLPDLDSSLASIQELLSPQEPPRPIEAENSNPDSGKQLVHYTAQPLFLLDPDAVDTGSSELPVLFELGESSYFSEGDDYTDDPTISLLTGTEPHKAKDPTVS
# [12] = biological target: T3, Short transient receptor potential channel 4 (Mus musculus, UniProt Q9QUQ5); assay: block of DAMGO-driven TRPC4 calcium entry – cell-based, HEK293 TRPC4/mu-opioid, Fluo-4 calcium, dose response (AID 434942); type: functional;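 also: potency of inhibitors blocking the TRPC4 calcium response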
# T3 sequence (Q9QUQ5 whole entry): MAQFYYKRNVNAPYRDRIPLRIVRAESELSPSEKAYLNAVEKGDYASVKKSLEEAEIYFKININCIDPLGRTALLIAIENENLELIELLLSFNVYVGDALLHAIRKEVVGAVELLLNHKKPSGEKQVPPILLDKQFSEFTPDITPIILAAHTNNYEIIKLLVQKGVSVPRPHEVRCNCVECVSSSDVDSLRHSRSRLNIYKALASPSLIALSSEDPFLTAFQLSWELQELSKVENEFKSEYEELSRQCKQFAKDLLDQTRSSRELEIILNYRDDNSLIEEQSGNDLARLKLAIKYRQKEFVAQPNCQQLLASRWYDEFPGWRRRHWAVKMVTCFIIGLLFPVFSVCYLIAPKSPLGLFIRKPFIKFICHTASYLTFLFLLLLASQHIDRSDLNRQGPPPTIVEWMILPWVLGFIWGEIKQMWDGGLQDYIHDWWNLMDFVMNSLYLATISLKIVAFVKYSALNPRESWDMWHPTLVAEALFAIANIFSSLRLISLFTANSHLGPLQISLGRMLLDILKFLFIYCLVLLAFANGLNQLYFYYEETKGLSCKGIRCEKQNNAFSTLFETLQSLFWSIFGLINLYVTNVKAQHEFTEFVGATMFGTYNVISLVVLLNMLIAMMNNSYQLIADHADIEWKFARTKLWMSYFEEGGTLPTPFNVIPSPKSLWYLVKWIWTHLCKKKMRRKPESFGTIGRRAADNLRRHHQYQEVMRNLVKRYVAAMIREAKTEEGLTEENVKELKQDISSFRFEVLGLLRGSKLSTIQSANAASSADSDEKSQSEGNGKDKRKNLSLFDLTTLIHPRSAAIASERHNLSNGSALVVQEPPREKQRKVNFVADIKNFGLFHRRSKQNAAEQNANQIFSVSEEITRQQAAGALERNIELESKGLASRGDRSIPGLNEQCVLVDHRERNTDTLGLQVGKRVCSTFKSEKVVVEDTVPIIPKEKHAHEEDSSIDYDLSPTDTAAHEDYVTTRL
# [13] = biological target: T4, RNA-binding protein pos-1 (Caenorhabditis elegans, UniProt G5EF15); assay: disruptors of C. elegans POS-1 RNA interaction – biochemical, fluorescence polarization, dose response (AID 1964);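 also: purified POS-1 fused to maltose binding protein made in E. coli; potency of compounds blocking POS-1 binding to fluorescent RNA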
# T4 sequence (G5EF15 whole entry): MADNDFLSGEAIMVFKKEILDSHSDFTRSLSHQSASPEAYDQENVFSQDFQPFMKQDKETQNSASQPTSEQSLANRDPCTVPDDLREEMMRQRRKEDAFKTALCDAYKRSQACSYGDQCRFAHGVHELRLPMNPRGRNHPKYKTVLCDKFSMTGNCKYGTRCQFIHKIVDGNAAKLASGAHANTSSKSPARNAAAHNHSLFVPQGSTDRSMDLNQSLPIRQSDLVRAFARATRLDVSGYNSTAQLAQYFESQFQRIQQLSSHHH
# [14] = biological target: T5, Zinc finger protein mex-5 (Caenorhabditis elegans, UniProt Q9XUB2); assay: potency of MEX-5 RNA-binding blockers – biochemical, C. elegans, fluorescence polarization, dose response (AID 1960)
# T5 sequence (Q9XUB2 whole entry): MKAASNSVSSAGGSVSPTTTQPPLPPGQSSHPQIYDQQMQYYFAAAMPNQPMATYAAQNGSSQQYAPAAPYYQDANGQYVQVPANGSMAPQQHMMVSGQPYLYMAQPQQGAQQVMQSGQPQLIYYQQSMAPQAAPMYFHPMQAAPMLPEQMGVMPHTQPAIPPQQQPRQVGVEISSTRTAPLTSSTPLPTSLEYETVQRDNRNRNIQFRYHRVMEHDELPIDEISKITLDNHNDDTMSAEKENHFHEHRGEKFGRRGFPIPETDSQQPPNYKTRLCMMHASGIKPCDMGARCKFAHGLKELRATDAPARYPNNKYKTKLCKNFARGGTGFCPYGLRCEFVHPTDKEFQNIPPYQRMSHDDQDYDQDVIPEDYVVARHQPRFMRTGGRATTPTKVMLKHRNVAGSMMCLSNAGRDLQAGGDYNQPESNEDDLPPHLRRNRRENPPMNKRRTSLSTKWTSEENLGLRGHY
# [15] = viability loss in HeLa cells – cytotoxicity control for MgcRacGAP inhibitor project, dose response (AID 624300); type: functional
# [16] = biological target: T6, Rac GTPase-activating protein 1 (Homo sapiens, UniProt Q9H0H5); assay: blockers of MgcRacGAP-driven Rac1 GTP hydrolysis – biochemical, ADP Hunter fluorescence, primary and confirmatory, confirmation (AID 624330); type: functional
# T6 sequence (Q9H0H5 whole entry): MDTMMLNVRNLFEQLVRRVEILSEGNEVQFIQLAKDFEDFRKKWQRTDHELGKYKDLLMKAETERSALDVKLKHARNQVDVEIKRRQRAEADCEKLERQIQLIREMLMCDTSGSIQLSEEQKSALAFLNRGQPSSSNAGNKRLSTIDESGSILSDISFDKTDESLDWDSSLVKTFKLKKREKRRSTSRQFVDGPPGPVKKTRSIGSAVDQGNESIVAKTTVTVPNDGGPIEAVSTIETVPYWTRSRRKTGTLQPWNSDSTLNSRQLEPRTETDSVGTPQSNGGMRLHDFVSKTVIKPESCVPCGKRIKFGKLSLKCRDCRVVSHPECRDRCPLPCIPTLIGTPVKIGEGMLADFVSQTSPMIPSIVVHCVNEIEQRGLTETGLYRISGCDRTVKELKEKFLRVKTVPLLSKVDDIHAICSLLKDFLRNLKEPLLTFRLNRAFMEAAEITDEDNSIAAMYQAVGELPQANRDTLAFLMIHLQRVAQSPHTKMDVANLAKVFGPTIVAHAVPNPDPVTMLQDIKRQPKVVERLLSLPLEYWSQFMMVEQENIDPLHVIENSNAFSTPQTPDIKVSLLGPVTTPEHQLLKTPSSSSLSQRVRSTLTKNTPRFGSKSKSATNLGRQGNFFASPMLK
# [17] = microbe, parasite or virus in culture; type: functional; settings: Mycobacterium tuberculosis
# Chain of Nonstructural protein 1 (Q194T2 whole entry): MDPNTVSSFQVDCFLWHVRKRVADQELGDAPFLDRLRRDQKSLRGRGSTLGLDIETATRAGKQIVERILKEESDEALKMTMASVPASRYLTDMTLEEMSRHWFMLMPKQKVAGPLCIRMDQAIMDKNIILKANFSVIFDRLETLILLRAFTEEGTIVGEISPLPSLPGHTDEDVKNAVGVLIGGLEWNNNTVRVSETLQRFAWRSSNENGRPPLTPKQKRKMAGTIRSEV
structure (smiles),measurement,setting,value
Nc1ccccc1C(=O)N=Nc1[nH]c(N)c2ccccc12,IC50,[1],20.7 µM (active)
Cc1cc(C)n(CCOc2ccc(Cl)cc2Cl)n1,CC50,[2],> 50 µM (active)
CCOc1cc(S(=O)(=O)NCc2ccc(OC)cc2)c(OCC)cc1-n1cnnn1,IC50,[3],> 50 µM (not active)
CSc1nc(N)nc(-c2cccs2)c1C#N,CC50,[2],> 25 µM (active)
same,AC50,[4],25.1 µM (inconclusive)
O=C1C(Cl)=C(N2CCN(c3ncccn3)CC2)C(=O)N1c1ccnc(Cl)c1,IC50,[5],> 50 µM (inconclusive)
O=C(N/N=C/c1coc2ccccc2c1=O)c1cccc([N+](=O)[O-])c1,IC50,[6],35.2 µM (active)
COc1ccc(NC(=O)CC2COc3ccccc3O2)c(OC)c1 (centres undefined),IC50,[6],7.18 µM (active)
CCOC(=O)CCNC(=O)N1CCCC(CNS(=O)(=O)c2cccs2)C1 (centres undefined),IC50,[3],> 50 µM (not active)
C[C@H](Br)C(=O)c1ccc2cc(Br)c3ccccc3c2c1,AC50,[7],inconclusive
COc1ccc2c3c(n(C)c2c1)[C@H](CO)N(C(=O)CC1CC1)CC31CCN(Cc2nccs2)CC1,AC50,[8],3.93 µM (active)
O=C(CCCSc1ccc(Cl)cc1)Nc1cc(S(=O)(=O)N2CCOCC2)ccc1O,IC50,[9],33.2 µM (active)
COc1ccc(/C=N/Nc2ccc(C(=O)O)cc2)cc1Br,AC50,[10],0.837 µM (active)
same,EC50,[11],< 0.16 µM (active)
same,IC50,[6],23.4 µM (active)
OCC1(CCCc2ccccc2)CCN(Cc2cc(F)ccc2F)CC1,EC50,[12],4.22 µM (active)
CCCCn1c(NCCO)nc2ccccc21,EC50,[12],1.68 µM (active)
COc1cccc(/C=N/NC(=S)Nc2cccc(C(=O)O)c2)c1,IC50,[6],15.7 µM (active)
Cc1cccn2c(=O)c3cc(S(=O)(=O)c4ccccc4)c(=N)n(Cc4cccnc4)c3nc12,EC50,[13],8.88 µM (inconclusive)
same,EC50,[14],18.8 µM (inconclusive)
same,CC50,[2],> 50 µM (active)
COc1ccc(-c2ccnc3nc(Sc4ncc(C(F)(F)F)cc4Cl)nn23)cc1,CC50,[2],36.7 µM (active)
COc1ccc2[nH]c(NCc3ccccc3)nc2c1,EC50,[12],1.68 µM (active)
CCCC(=O)n1nc(-c2cccnc2)nc1NCc1ccc(OC)cc1,IC50,[3],0.0883 µM (active)
O=C(NCc1ccc2c(c1)OCO2)c1cnc2ccc(S(=O)(=O)N3CCOCC3)cc2c1O,IC50,[3],0.845 µM (active)
Sc1nc2ccccc2n1Cc1ccccc1,IC50,[9],37.2 µM (active)
Nc1nc(-c2cccnc2)nn1C(=O)c1ccc(F)cc1,IC50,[3],2.01 µM (active)
O=S(=O)(c1ccc(F)cc1)N1C[C@@H]2N[C@H](C1)[C@H]2c1ccc(-c2ccc(F)cc2)cc1,AC50,[8],2.1 µM (active)
CCn1c(/C=C/c2ccc(O)cc2)nc2ccccc2c1=O,AC50,[10],3.35 µM (active)
same,CC50,[15],100 µM (active)
same,IC50,[16],33.7 µM (active)
CN(C)/C=N/c1ncc(C(=O)c2ccc3ccccc3c2)s1,AC50,[7],inconclusive
Cc1ccc(C(c2nnnn2Cc2cccs2)N2CCN(Cc3ccc4c(c3)OCO4)CC2)cc1 (centres undefined),IC50,[1],> 100 µM (active)
same,CC50,[17],> 40 µM (active)
